{
  "source": "Sander's compilation of Henry's law constants (doi:10.1021/ac0604742)",
  "data": [
    {"assay": "Henry solubility constant Hcp at 298.15 K (mol/(m3 Pa))", "conditions": "reference: Fang et al. (2006)", "values": [
      {"smiles": "Clc1ccc(-c2cc(Cl)c(Cl)c(Cl)c2)cc1", "note": "[3,4,4',5-tetrachlorobiphenyl]", "Henry solubility constant Hcp": 0.088},
      {"smiles": "Clc1ccc(-c2ccc(Cl)c(Cl)c2)cc1Cl", "note": "[3,3',4,4'-tetrachlorobiphenyl]", "Henry solubility constant Hcp": 0.091},
      {"smiles": "Clc1cc(-c2cc(Cl)c(Cl)c(Cl)c2Cl)cc(Cl)c1Cl", "note": "[2,3,3',4,4',5,5'-heptachlorobiphenyl]", "Henry solubility constant Hcp": 0.084},
      {"smiles": "Clc1cc(-c2ccc(Cl)c(Cl)c2Cl)cc(Cl)c1Cl", "note": "[2,3,3',4,4',5'-hexachlorobiphenyl]", "Henry solubility constant Hcp": 0.06},
      {"smiles": "Clc1ccc(-c2cc(Cl)c(Cl)cc2Cl)cc1Cl", "note": "[2,3',4,4',5-pentachlorobiphenyl]", "Henry solubility constant Hcp": 0.057},
      {"smiles": "Clc1cc(-c2cc(Cl)c(Cl)c(Cl)c2)cc(Cl)c1Cl", "note": "[3,3',4,4',5,5'-hexachlorobiphenyl]", "Henry solubility constant Hcp": 0.081},
      {"smiles": "Clc1cc(Cl)c(-c2cc(Cl)c(Cl)c(Cl)c2)cc1Cl", "note": "[2,3',4,4',5,5'-hexachlorobiphenyl]", "Henry solubility constant Hcp": 0.078},
      {"smiles": "Clc1ccc(-c2cc(Cl)c(Cl)c(Cl)c2Cl)cc1Cl", "note": "[2,3,3',4,4',5-hexachlorobiphenyl]", "Henry solubility constant Hcp": 0.068},
      {"smiles": "Clc1ccc(-c2ccc(Cl)c(Cl)c2Cl)cc1Cl", "note": "[2,3,3',4,4'-pentachlorobiphenyl]", "Henry solubility constant Hcp": 0.18},
      {"smiles": "Clc1ccc(-c2cc(Cl)c(Cl)c(Cl)c2)cc1Cl", "note": "[3,3',4,4',5-pentachlorobiphenyl]", "Henry solubility constant Hcp": 0.1},
      {"smiles": "Clc1ccc(-c2cc(Cl)c(Cl)c(Cl)c2)c(Cl)c1", "note": "[2,3',4,4',5'-pentachlorobiphenyl]", "Henry solubility constant Hcp": 0.046}
    ]}
  ]
}
